Read-outs that look alike come from different tables or passages of the source.
Format: physicochemical
[1] = 206 °F, pH 6.0, 50 psig, 0.5 M/L NaCl, 0.05 mol/liter base generator
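Further: hydrolysis of the base generator in aqueous solution, t1/2 given in hours as the time until half of it has reacted, with pH held steady during the run.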

Excerpt: In each case, the solution was maintained at a pressure of 50 psig during the test. The pH of the solution was maintained substantially constant by adding portions at 0.1 mol/liter sodium bicarbonate solution to the system while the hydrolysis was proceeding. Each base generator solution consisted of water containing 0.5 mol/liter sodium chloride and 0.05 mols/liter of the base generator.
*^1 This is the time, in hours, required for the base generator to be
This is a convenient way to measure the speed of a reaction.

## O=N[O-].[Na+] [NaNO2, Sodium Nitrite]
212 °F, pH 6.0, 50 psig, 0.5 M/L NaCl, 0.05 mol/liter base generator
  Half Life, t1/2: 80.0 h
279 °F, pH 5.5, 50 psig, 0.5 M/L NaCl, 0.05 mol/liter base generator
  Half Life, t1/2: 17.5 h
279 °F, pH 6.0, 50 psig, 0.5 M/L NaCl, 0.05 mol/liter base generator
  Half Life, t1/2: 49.2 h
279 °F, pH 7.0, 50 psig, 0.5 M/L NaCl, 0.05 mol/liter base generator
  Half Life, t1/2: 141.4 h
280 °F, pH 6.5, 50 psig, 0.5 M/L NaCl, 0.05 mol/liter base generator
  Half Life, t1/2: 84.9 h
296 °F, pH 6.5, 50 psig, 0.5 M/L NaCl, 0.05 mol/liter base generator
  Half Life, t1/2: 73.2 h

## NC(N)=O [Urea]
0.5 m nacl water, pH 5.5
  Half Life, t1/2: 8.4 h
0.5 m nacl water, pH 6.2
  Half Life, t1/2: 12.3 h
0.5 m nacl water, pH 7
  Half Life, t1/2: 45.2 h
0.5 m nacl water, pH 8
  Half Life, t1/2: 15.9 h

## O=C1C=CC(=O)N1 [Maleimide]
76 °F, pH 6.0, 50 psig, 0.5 M/L NaCl, 0.05 mol/liter base generator
  Half Life, t1/2: 450.1 h
96 °F, pH 6.0, 50 psig, 0.5 M/L NaCl, 0.05 mol/liter base generator
  Half Life, t1/2: 53.6 h
109 °F, pH 6.0, 50 psig, 0.5 M/L NaCl, 0.05 mol/liter base generator
  Half Life, t1/2: 92.0 h
109 °F, pH 7.0, 50 psig, 0.5 M/L NaCl, 0.05 mol/liter base generator
  Half Life, t1/2: 35.0 h
110 °F, pH 5.5, 50 psig, 0.5 M/L NaCl, 0.05 mol/liter base generator
  Half Life, t1/2: 439.0 h
110 °F, pH 6.5, 50 psig, 0.5 M/L NaCl, 0.05 mol/liter base generator
  Half Life, t1/2: 43.8 h
140 °F, pH 6.0, 50 psig, 0.5 M/L NaCl, 0.05 mol/liter base generator
  Half Life, t1/2: 18.4 h
[1]
  Half Life, t1/2: too fast

## CC1CO1 (stereo not shown) [Propylene oxide, Propylene Oxide]
76 °F, pH 7.0, 50 psig, 0.5 M/L NaCl, 0.05 mol/liter base generator
  Half Life, t1/2: 86.1 h
106 °F, pH 6.0, 50 psig, 0.5 M/L NaCl, 0.05 mol/liter base generator
  Half Life, t1/2: 26.5 h
122 °F, pH 6.0, 50 psig, 0.5 M/L NaCl, 0.05 mol/liter base generator
  Half Life, t1/2: 26.0 h
122 °F, pH 7.0, 50 psig, 0.5 M/L NaCl, 0.05 mol/liter base generator
  Half Life, t1/2: 35.6 h

## N#CO [KOCN, Potassium Cyanate]
78 °F, pH 6.0, 50 psig, 0.5 M/L NaCl, 0.05 mol/liter base generator
  Half Life, t1/2: 19.6 h
78 °F, pH 6.5, 50 psig, 0.5 M/L NaCl, 0.05 mol/liter base generator
  Half Life, t1/2: 68.6 h
78 °F, pH 7.0, 50 psig, 0.5 M/L NaCl, 0.05 mol/liter base generator
  Half Life, t1/2: 206.4 h
99 °F, pH 7.0, 50 psig, 0.5 M/L NaCl, 0.05 mol/liter base generator
  Half Life, t1/2: ~ 94.0 hours
99 °F, pH 7.5, 50 psig, 0.5 M/L NaCl, 0.05 mol/liter base generator
  Half Life, t1/2: ~ 223.0 hours
116 °F, pH 8.0, 50 psig, 0.5 M/L NaCl, 0.05 mol/liter base generator
  Half Life, t1/2: ~ 223.0 hours

## O=C1CCC(=O)N1 [Succinimide]
177 °F, pH 6.0, 50 psig, 0.5 M/L NaCl, 0.05 mol/liter base generator
  Half Life, t1/2: 184.1 h
177 °F, pH 7.0, 50 psig, 0.5 M/L NaCl, 0.05 mol/liter base generator
  Half Life, t1/2: 28.4 h
[1]
  Half Life, t1/2: 31.3 h

Source: patent US4617994A, “Determining residual oil saturation by injecting CO2 and base generating reactant” (priority 1985, dated 1986)
